Earlier results in US7853626B2, “Computational systems for biomedical data” (The Invention Science Fund I, LLC, priority 2006, dated 2010).
Like-named read-outs stand apart in the source and are kept apart here.

Key:
[1] = tested on: hyperthyroidism; conditions: groups not comparable at baseline (surgery group younger, in better health)

Row | Structure (SMILES) | subset efficacy (members of the identified subpopulation (low methylmalonic acid / homocysteine)) | odds ratio of developing severe toxicity (overall study population) | odds ratio of developing severe toxicity (subpopulation with total homocysteine levels of less than 7.5 μmol/l) | frequency of illness and death compared with surgery [1]
1 | Nc1nc2[nH]cc(CCc3ccc(C(=O)N[C@@H](CCC(=O)O)C(=O)O)cc3)c2c(=O)[nH]1 [pemetrexed] | maintained or improved efficacy | 1 | 0.7 | –
2 | [131IH] [iodine-131] | – | – | – | much higher frequency of illness and death
